According to ChEMBL document CHEMBL1201862, “PubChem BioAssay data set” (2004):
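Exposure lasted 48 hours, with cells grown in 96-well plates and compounds tested at five concentrations. GI50: concentration for 50% inhibition of growth.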 Activity calls are given as the source filed them. No stated cut-off is given here; in the data, active = GI50 up to about 1.1 µM and inactive = higher.

What was measured:
Test in all cases: NCI anticancer screen, dose series, 48 h
A498 = test system: A498
CCRF-CEM = test system: CCRF-CEM
EKVX = test system: EKVX
HOP-92 = test system: HOP-92
HT-29 = test system: HT-29
Malme-3M = test system: Malme-3M
OVCAR-3 = test system: OVCAR-3
OVCAR-4 = test system: OVCAR-4
SF-268 = test system: SF-268
SN12C = test system: SN12C
SNB-19 = test system: SNB-19
SNB-75 = test system: SNB-75
UACC-62 = test system: UACC-62
ACHN = test system: ACHN
NCI-H460 = test system: NCI-H460
OVCAR-5 = test system: OVCAR-5
RXF 393 = test system: RXF 393
U-251 = test system: U-251

Measured: GI50

O=S1(=O)OCCOS(=O)(=O)C1Cl
inactive: A498 > 100 µM | CCRF-CEM > 100 µM | EKVX > 100 µM | HOP-92 > 100 µM | HT-29 > 100 µM | Malme-3M > 100 µM | OVCAR-3 > 100 µM | OVCAR-4 > 100 µM | SF-268 > 100 µM | SN12C > 100 µM | SNB-19 > 100 µM | SNB-75 > 100 µM | UACC-62 82.6 µM

NC1=NS(=O)(=O)Nc2nc(-c3ccc([N+](=O)[O-])o3)[nH]c21
inactive: A498 76.6 µM | ACHN 16.9 µM | CCRF-CEM 3.6 µM | HOP-92 14 µM | HT-29 19.4 µM | Malme-3M 16.7 µM | NCI-H460 20.2 µM | OVCAR-3 24.7 µM | OVCAR-4 17.1 µM | OVCAR-5 19.4 µM | RXF 393 12.9 µM | SF-268 20 µM | SN12C 17.7 µM | SNB-19 16.7 µM | SNB-75 16 µM | U-251 16.9 µM | UACC-62 15.9 µM

NNC(=O)N/N=C(/CC1(O)C(=O)Nc2ccc(Br)cc21)c1ccccc1 (configuration not stated)
inactive: ACHN 24.3 µM | CCRF-CEM 27.1 µM | EKVX 22.7 µM | HOP-92 18.1 µM | HT-29 30.6 µM | Malme-3M 33.9 µM | OVCAR-3 41.8 µM | SF-268 21.5 µM | SN12C 29.2 µM | SNB-19 11.8 µM | SNB-75 9.27 µM | U-251 > 10 µM | UACC-62 19.8 µM

O=C1OC(=O)C2C3C=CC(C12)C1C2C=CC2C31 (configuration not stated)
inactive: A498 > 100 µM | ACHN > 100 µM | CCRF-CEM > 100 µM | EKVX > 100 µM | HOP-92 > 100 µM | HT-29 > 100 µM | Malme-3M > 100 µM | NCI-H460 > 100 µM | OVCAR-4 > 100 µM | OVCAR-5 > 100 µM | RXF 393 > 100 µM | SF-268 > 100 µM | SN12C > 100 µM | SNB-19 > 100 µM | U-251 > 100 µM

O=c1cc(-c2ccccc2)oc2cc(OCCCOc3ccc4c(=O)cc(-c5ccccc5)oc4c3)ccc12
inactive: ACHN > 100 µM | CCRF-CEM > 100 µM | EKVX > 100 µM | HOP-92 > 100 µM | HT-29 > 100 µM | Malme-3M > 100 µM | NCI-H460 > 100 µM | OVCAR-3 > 100 µM | OVCAR-4 > 100 µM | OVCAR-5 > 100 µM | RXF 393 > 100 µM | SN12C > 100 µM | SNB-19 > 100 µM | SNB-75 47.2 µM | U-251 > 100 µM | UACC-62 > 100 µM

Cc1nc(-c2cccnc2)sc1C(=O)/C=C/c1cccc([N+](=O)[O-])c1
inactive: A498 > 100 µM | CCRF-CEM > 100 µM | EKVX > 100 µM | HOP-92 > 100 µM | HT-29 > 100 µM | Malme-3M > 100 µM | NCI-H460 > 100 µM | OVCAR-3 > 100 µM | OVCAR-5 > 100 µM | RXF 393 > 100 µM | SF-268 > 100 µM | SN12C > 100 µM | SNB-75 > 100 µM | U-251 > 100 µM | UACC-62 > 100 µM

C=C1C(OC(C)=O)CC(OC(C)=O)C2(C)C(OC(C)=O)C(OC(C)=O)C3=C(C)C(OC(=O)/C=C/c4ccccc4)CC(C(OC(C)=O)C12)C3(C)C (configuration not stated)
inactive: A498 61.1 µM | ACHN 35.5 µM | CCRF-CEM > 100 µM | HOP-92 21.8 µM | HT-29 > 100 µM | Malme-3M 59.3 µM | NCI-H460 > 100 µM | OVCAR-4 16.7 µM | OVCAR-5 > 100 µM | RXF 393 36.4 µM | SF-268 26.7 µM | SN12C > 100 µM | SNB-19 51.8 µM | SNB-75 15.1 µM | U-251 36.2 µM | UACC-62 > 100 µM

C1=CC=C2NCCSCC/N=C3/C=CC=CC=C3NCCSCC/N=C\2C=C1
inactive: A498 > 100 µM | ACHN > 100 µM | CCRF-CEM > 100 µM | EKVX > 100 µM | HT-29 > 100 µM | Malme-3M > 100 µM | NCI-H460 > 100 µM | OVCAR-3 > 100 µM | OVCAR-4 > 100 µM | OVCAR-5 > 100 µM | SF-268 > 100 µM | SN12C > 100 µM | SNB-19 > 100 µM | SNB-75 > 100 µM | U-251 > 100 µM | UACC-62 > 100 µM

CN(C)CC1(C)CC/C(=C\c2ccc(Cl)cc2)C1=O (configuration not stated)
inactive: A498 49.1 µM | ACHN 44.9 µM | CCRF-CEM 25.8 µM | HOP-92 59 µM | HT-29 44.2 µM | Malme-3M > 100 µM | NCI-H460 24.4 µM | OVCAR-3 34.7 µM | OVCAR-4 35.2 µM | OVCAR-5 > 100 µM | RXF 393 22.4 µM | SF-268 36.9 µM | SN12C 51.3 µM | SNB-19 20.3 µM | SNB-75 45 µM | U-251 40.1 µM | UACC-62 28.5 µM

COc1cc(OC)c([C@@H]2OC(=O)C3C2C(=O)O[C@H]3c2cc(OC)c(OC)cc2OC)cc1OC (some centres not stated)
inactive: A498 > 100 µM | ACHN > 100 µM | CCRF-CEM > 100 µM | EKVX > 100 µM | HOP-92 > 10 µM | HT-29 > 100 µM | NCI-H460 > 100 µM | OVCAR-3 > 100 µM | OVCAR-4 45.4 µM | RXF 393 > 100 µM | SN12C > 100 µM | SNB-19 > 100 µM | SNB-75 > 100 µM | U-251 > 100 µM | UACC-62 > 100 µM

CCCC/C(C)=N/NC(N)=S
inactive: A498 > 100 µM | ACHN > 100 µM | CCRF-CEM > 100 µM | EKVX > 100 µM | HOP-92 > 100 µM | HT-29 > 100 µM | Malme-3M > 100 µM | NCI-H460 > 100 µM | OVCAR-3 > 100 µM | OVCAR-5 > 100 µM | RXF 393 > 100 µM | SF-268 > 100 µM | SN12C > 100 µM | SNB-19 > 100 µM | SNB-75 > 100 µM | U-251 > 100 µM | UACC-62 > 100 µM

COc1ccc(/C(=N/O)C(c2ccc(OC)cc2)C2C(=O)Oc3ccccc32)cc1 (configuration not stated)
inactive: A498 > 100 µM | ACHN 70.6 µM | CCRF-CEM > 100 µM | EKVX 53.1 µM | HOP-92 16.3 µM | HT-29 > 100 µM | Malme-3M 63.1 µM | NCI-H460 71.3 µM | OVCAR-4 48.6 µM | OVCAR-5 12.7 µM | SF-268 > 100 µM | SN12C 84.7 µM | SNB-75 82.8 µM | U-251 87.5 µM | UACC-62 82 µM

CC1(C)OC(=O)C(c2ccsc2)C(=O)O1
inactive: ACHN > 100 µM | CCRF-CEM > 100 µM | EKVX > 100 µM | HOP-92 > 100 µM | HT-29 > 100 µM | Malme-3M > 100 µM | NCI-H460 > 100 µM | OVCAR-3 > 100 µM | OVCAR-4 > 100 µM | OVCAR-5 > 100 µM | RXF 393 > 100 µM | SF-268 > 100 µM | SN12C > 100 µM | SNB-19 > 100 µM | SNB-75 > 100 µM | U-251 > 100 µM | UACC-62 > 100 µM

CCO/N=[N+](\[O-])N(CC)CC
inactive: A498 > 100 µM | ACHN > 100 µM | CCRF-CEM > 100 µM | EKVX > 100 µM | HOP-92 > 100 µM | HT-29 > 100 µM | NCI-H460 > 100 µM | OVCAR-3 > 100 µM | OVCAR-5 > 100 µM | RXF 393 > 100 µM | SF-268 > 100 µM | SN12C > 100 µM | SNB-19 > 100 µM | UACC-62 > 100 µM

N#CC(c1nc2ccccc2nc1Cl)S(=O)(=O)c1ccccc1 (configuration not stated)
inactive: A498 > 100 µM | ACHN > 100 µM | CCRF-CEM 30.1 µM | EKVX > 100 µM | HOP-92 27.4 µM | Malme-3M 56.9 µM | NCI-H460 > 100 µM | OVCAR-3 > 100 µM | OVCAR-4 53.3 µM | OVCAR-5 > 100 µM | SF-268 > 100 µM | SN12C 39.8 µM | SNB-19 > 100 µM | SNB-75 > 100 µM | U-251 83.8 µM | UACC-62 35.8 µM

C=CCCC(OCOCCOC)c1cc(C)c(O[Si](C)(C)C(C)(C)C)c(C)c1 (configuration not stated)
inactive: A498 22.8 µM | ACHN 13.2 µM | CCRF-CEM 13.3 µM | EKVX 32.2 µM | Malme-3M 19.6 µM | NCI-H460 13.9 µM | OVCAR-3 13.6 µM | OVCAR-5 17 µM | RXF 393 13.8 µM | SF-268 15.2 µM | SN12C 15.6 µM | SNB-19 6.32 µM | SNB-75 15.6 µM | U-251 14.3 µM | UACC-62 10.7 µM

COC(=O)/C(=N/NC(C)(C)C)C(C(=O)OC)C(=O)C(=O)Nc1nc2ccc([N+](=O)[O-])cc2s1 (configuration not stated)
inactive: A498 23.6 µM | ACHN > 100 µM | CCRF-CEM > 100 µM | EKVX > 100 µM | HT-29 > 100 µM | Malme-3M > 100 µM | NCI-H460 > 100 µM | OVCAR-3 > 100 µM | OVCAR-4 > 100 µM | OVCAR-5 > 100 µM | SF-268 > 100 µM | SN12C > 100 µM | SNB-19 > 100 µM | U-251 > 100 µM | UACC-62 > 100 µM
